Assay: Antagonist activity at CCR2 in human monocytes assessed as reduction of chemotaxis in presence of […] BSA

| SMILES | IC50 |
| --- | --- |
| CC(C)N(C)[C@@H]1CC[C@H](N2CC[C@H](NC(=O)c3cccc(C(F)(F)F)c3)C2=O)[C@H](CS(=O)(=O)C(C)(C)C)C1 | 0.2 nM |
| CC(C)N(C)[C@@H]1CC[C@H](N2CC[C@H](NC(=O)c3cccc(C(F)(F)F)c3)C2=O)[C@H](CS(=O)(=O)C(C)C)C1 | 0.2 nM |
| CC(C)N(C)[C@@H]1CC[C@H](N2CC[C@H](NC(=O)c3cccc(C(F)(F)F)c3)C2=O)[C@H](CS(C)(=O)=O)C1 | 2.6 nM |
| CCS(=O)(=O)C[C@@H]1C[C@H](N(C)C(C)C)CC[C@@H]1N1CC[C@H](NC(=O)c2cccc(C(F)(F)F)c2)C1=O | 0.6 nM |
